Molecules are shown by their SMILES.

This data set is described as follows: Solubility of representative compounds (Table 1). The class given is physicochemical. The conditions noted are these: solvents listed.
Consider `Cc1ccc(CC[C@H]2CCNC(C(=O)N[C@@H](CO)[C@@H](O)c3ccccc3)C2)cc1` (stereo in doubt) [CYD-6-9-1, (2S,4S)—N-((1S,2S)-1,3-dihydroxy-1-phenylpropan-2-yl)-4-(4-methylphenethyl)piperidine-2-carboxamide], for which the Solubility result was “EtOH, DMSO”.
The result for `CC1CCC(CC[C@H]2CCNC(C(=O)N[C@@H](CO)[C@@H](O)c3ccccc3)C2)CC1` (stereo in doubt) [CYD-6-10-1, (2S,4S)—N-((1S,2S)-1,3-dihydroxy-1-phenylpropan-2-yl)-4-(2-(4-methylcyclohexyl)ethyl)piperidine-2-carboxamide] reads “EtOH, DMSO”; that for `CC1CCC(CC[C@@H]2CCN[C@H](C(=O)N[C@@H](CO)C(O)c3ccccc3)C2)CC1` (stereo in doubt) [CYD-6-10-2, (2S,4R)—N-((1R,2S)-1,3-dihydroxy-1-phenylpropan-2-yl)-4-(2-(4-methylcyclohexyl)ethyl)piperidine-2-carboxamide], “EtOH, DMSO”.
For the compound `O=C(N[C@@H](CO)[C@@H](O)c1ccccc1)C1C[C@@H](C2CCCCC2)CCN1` (stereo in doubt) [CYD-6-15-1, (2S,4S)-4-cyclohexyl-N-((1S,2S)-1,3-dihydroxy-1-phenylpropan-2-yl)piperidine-2-carboxamide], the Solubility entry was “EtOH, DMSO”.
To `O=C(N[C@@H](CO)[C@@H](O)c1ccccc1)C1C[C@@H](c2ccccc2)CCN1` (stereo in doubt) [CYD-6-16-1, (2S,4S)—N-((1S,2S)-1,3-dihydroxy-1-phenylpropan-2-yl)-4-phenylpiperidine-2-carboxamide] belongs “EtOH, DMSO”; to `CCCCCCCCCC#Cc1ccnc(C(=O)NC(C(C)Cl)C2OC(SC)C(O)C(O)C2O)c1` (stereo not shown) [CYD-3-21, 4-Undec-1-ynyl-pyridine-2-carboxylic acid [2-chloro-1-(3,4,5-trihydroxy-6-methylsulfanyl-tetrahydro-pyran-2-yl)-propyl]-amide], “EtOH, DMSO”; to `O=C(NC(CO)CO)c1ccccc1C1CCNCC1` [CYD-3-33, N-(1,3-Dihydroxypropan-2-yl)-2-(piperidin-4-yl)benzamide], “EtOH, DMSO H2O”.
To `O=C(NCC(O)CO)c1ccccc1C1CCNCC1` (stereo not shown) [CYD-3-35, N-(2,3-Dihydroxypropyl)-2-(piperidin-4-yl)benzamide] belongs “EtOH, DMSO, H2O”.
The result for `CCCCCCCCCCC[C@H]1CCN[C@@H](C(=O)N[C@@H](CO)[C@@H](O)c2ccccc2)C1` [CYD-3-47-1, (2R,4S)—N-((1S,2S)-1,3-dihydroxy-1-phenylpropan-2-yl)-4-undecylpiperidine-2-carboxamide] reads “EtOH, DMSO”; that for `CCCCCCCCCCC[C@@H]1CCN[C@H](C(=O)N[C@@H](CO)[C@@H](O)c2ccccc2)C1` [CYD-3-47-2, (2S,4R)—N-((1S,2S)-1,3-dihydroxy-1-phenylpropan-2-yl)-4-undecylpiperidine-2-carboxamide], “EtOH, DMSO”.
Turning to `O=C(NCC(O)CO)C1CNCCN1c1ccccc1` (stereo not shown) [CYD-3-49, N-(2,3-Dihydroxypropyl)-1-phenylpiperazine-2-carboxamide], the Solubility result is listed as “EtOH, DMSO, H2O”.
As to `O=C(N[C@@H](CO)[C@@H](O)c1ccccc1)c1ccccc1C1CCNCC1` [CYD-3-50, N-((1S,2S)-1,3-dihydroxy-1-phenylpropan-2-yl)-2-(piperidin-4-yl)benzamide], the Solubility entry is on record as “EtOH, DMSO, H2O”.
Consider `CS[C@H]1O[C@H]([C@H](NC(=O)C2CC(CCc3ccccc3)CCN2)[C@@H](C)O)[C@H](O)[C@H](O)[C@H]1O` (stereo partly drawn) [CYD-3-61, 2,4-cis-4-Phenethyl-piperidine-2-carboxylic acid [2-hydroxy-1-(3,4,5-trihydroxy-6-methylsulfanyl-tetrahydro-pyran-2-yl)-propyl]-amide], for which the Solubility result is “EtOH, DMSO”.
The result for `CS[C@H]1O[C@H]([C@H](NC(=O)C2CC(CCC3CCCCC3)CCN2)[C@@H](C)O)[C@H](O)[C@H](O)[C@H]1O` (stereo partly drawn) [CYD-3-62, 2,4-cis-4-(2-Cyclohexyl-ethyl)-piperidine-2-carboxylic acid [2-hydroxy-1-(3,4,5-trihydroxy-6-methylsulfanyl-tetrahydro-pyran-2-yl)-propyl]-amide] reads “EtOH, DMSO”; that for `CCCCCCCCCCC[C@@H]1CCN[C@H](C(=O)N[C@H](CO)[C@H](O)c2ccccc2)C1` [CYD-5-68-1, (2S,4R)—N-((1R,2R)-1,3-dihydroxy-1-phenylpropan-2-yl)-4-undecylpiperidine-2-carboxamide], “EtOH, DMSO”; that for `CCCCCCCCCCC[C@H]1CCN[C@@H](C(=O)N[C@H](CO)[C@H](O)c2ccccc2)C1` [CYD-5-68-2, (2R,4S)—N-((1R,2R)-1,3-dihydroxy-1-phenylpropan-2-yl)-4-undecylpiperidine-2-carboxamide], “EtOH, DMSO”.
To `CCCCCCCCCCC[C@H]1CCN[C@@H](C(=O)N[C@@H](CO)[C@@H](O)c2ccc(SC)cc2)C1` [CYD-5-77-1, (2R,4S)—N-((1S,2S)-1,3-dihydroxy-1-(4-(methylthio)phenyl)propan-2-yl)-4-undecylpiperidine-2-carboxamide] belongs “EtOH, DMSO”.
The result for `CCCCCCCCCCC[C@@H]1CCN[C@H](C(=O)N[C@@H](CO)[C@@H](O)c2ccc(SC)cc2)C1` [CYD-5-77-2, (2S,4R)—N-((1S,2S)-1,3-dihydroxy-1-(4-(methylthio)phenyl)propan-2-yl)-4-undecylpiperidine-2-carboxamide] reads “EtOH, DMSO”.
With `CCCCCCCCCCC[C@H]1CCN[C@@H](C(=O)N[C@@H](CO)[C@@H](O)c2ccc(S(C)(=O)=O)cc2)C1` [CYD-5-80-1, (2R,4S)—N-((1S,2S)-1,3-dihydroxy-1-(4-(methylsulfonyl)phenyl)propan-2-yl)-4-undecylpiperidine-2-carboxamide], the Solubility result is listed as “EtOH, DMSO”.
For the compound `CCCCCCCCCCC[C@@H]1CCN[C@H](C(=O)N[C@@H](CO)[C@@H](O)c2ccc(S(C)(=O)=O)cc2)C1` [CYD-5-80-2, (2S,4R)—N-((1S,2S)-1,3-dihydroxy-1-(4-(methylsulfonyl)phenyl)propan-2-yl)-4-undecylpiperidine-2-carboxamide], the Solubility result is recorded as “EtOH, DMSO”.
The result for `O=C(N[C@H](CO)[C@H](O)c1ccccc1)[C@@H]1C[C@H](CCc2ccccc2)CCN1` [CYD-5-100-1, (2S,4R)—N-((1R,2R)-1,3-dihydroxy-1-phenylpropan-2-yl)-4-phenethylpiperidine-2-carboxamide] reads “EtOH, DMSO”; that for `O=C(N[C@H](CO)[C@H](O)c1ccccc1)[C@H]1C[C@@H](CCc2ccccc2)CCN1` [CYD-5-100-2, (2R,4S)—N-((1R,2R)-1,3-dihydroxy-1-phenylpropan-2-yl)-4-phenethylpiperidine-2-carboxamide], “EtOH, DMSO”.
To `O=C(N[C@H](CO)[C@H](O)c1ccccc1)[C@@H]1C[C@H](CCC2CCCCC2)CCN1` [CYD-6-1-1, (2S,4R)-4-(2-cyclohexylethyl)-N-((1R,2R)-1,3-dihydroxy-1-phenylpropan-2-yl)piperidine-2-carboxamide] belongs “EtOH, DMSO”; to `O=C(N[C@H](CO)[C@H](O)c1ccccc1)[C@H]1C[C@@H](CCC2CCCCC2)CCN1` [CYD-6-1-2, (2R,4S)-4-(2-cyclohexylethyl)-N-((1R,2R)-1,3-dihydroxy-1-phenylpropan-2-yl)piperidine-2-carboxamide], “EtOH, DMSO”.
To `CC(C)(C)c1ccc(CC[C@@H]2CCN[C@H](C(=O)N[C@H](CO)[C@H](O)c3ccccc3)C2)cc1` [CYD-6-2-1, (2S,4R)-4-(4-(tert-butyl)phenethyl)-N-((1R,2R)-1,3-dihydroxy-1-phenylpropan-2-yl)piperidine-2-carboxamide] belongs “EtOH, DMSO”; to `CC(C)(C)c1ccc(CC[C@H]2CCN[C@@H](C(=O)N[C@H](CO)[C@H](O)c3ccccc3)C2)cc1` [CYD-6-2-2, (2R,4S)-4-(4-(tert-butyl)phenethyl)-N-((1R,2R)-1,3-dihydroxy-1-phenylpropan-2-yl)piperidine-2-carboxamide], “EtOH, DMSO”.
On to `Cc1ccc(CC[C@@H]2CCN[C@H](C(=O)N[C@@H](CO)[C@@H](O)c3ccccc3)C2)cc1` [CYD-6-9-2, (2S,4R)—N-((1S,2S)-1,3-dihydroxy-1-phenylpropan-2-yl)-4-(4-methylphenethyl) piperidine-2-carboxamide], for which the Solubility result is “EtOH, DMSO”.
The result for `O=C(N[C@@H](CO)[C@@H](O)c1ccccc1)[C@@H]1C[C@H](C2CCCCC2)CCN1` [CYD-6-15-2, (2S,4R)-4-cyclohexyl-N-((1S,2S)-1,3-dihydroxy-1-phenylpropan-2-yl)piperidine-2-carboxamide] reads “EtOH, DMSO”; that for `O=C(N[C@@H](CO)[C@@H](O)c1ccccc1)[C@@H]1C[C@H](c2ccccc2)CCN1` [CYD-6-16-2, (2S,4R)—N-((1S,2S)-1,3-dihydroxy-1-phenylpropan-2-yl)-4-phenylpiperidine-2-carboxamide], “EtOH, DMSO”.
Take `c1ccc(N2CCNCC2CN2CCCCC2)cc1` (stereo not shown) [JZ-1-34]: the Solubility result was “EtOH, DMSO”.
The result for `c1ccc(N2CCN(CC3CNCCN3c3ccccc3)CC2)cc1` (stereo not shown) [JZ-1-35] reads “EtOH, DMSO”.

The values above are taken from patent publication US9533973B2, “Allosteric modulators of 5-hydroxytryptamine 2C receptor (5-HT2CR)” (THE BOARD OF REGENTS OF THE UNIVERSITY OF TEXAS SYSTEM, priority 2011, dated 2017).
